# Measurements taken from patent publication US7473790B2 (Pfizer Inc., priority 2003, dated 2009).
# Molecular target: T1, HCV polymerase (Hepatitis C virus genotype 1b, UniProt P26663)
# T1 construct: 2.5 pmoles (0.15 μg) HCV polymerase protein in a final volume of 75 μL
# Test: HCV polymerase primer/template-directed transcription assay (32P-GTP incorporation, filter binding)
# Assay type: biochemical
# Conditions: for IC50: recombinant HCV polymerase, 30 minutes at 30° C., concentration giving 50% inhibition of polymerase-directed transcription, read-out: IC50
# Method in brief: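 Recombinant genotype 1b polymerase (30 nM) extended biotin-dG12 primer on poly(rC)300 template with 1 μM GTP plus α-32P-GTP, pH 7.2, 10 mM MgCl2, 30 min at 30° C, 1% DMSO final. Products captured on DE filters and counted. IC50 fitted from triplicate cpm, with a tight-binding correction applied below 200 nM.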
# T1 sequence (P26663 2420-3010): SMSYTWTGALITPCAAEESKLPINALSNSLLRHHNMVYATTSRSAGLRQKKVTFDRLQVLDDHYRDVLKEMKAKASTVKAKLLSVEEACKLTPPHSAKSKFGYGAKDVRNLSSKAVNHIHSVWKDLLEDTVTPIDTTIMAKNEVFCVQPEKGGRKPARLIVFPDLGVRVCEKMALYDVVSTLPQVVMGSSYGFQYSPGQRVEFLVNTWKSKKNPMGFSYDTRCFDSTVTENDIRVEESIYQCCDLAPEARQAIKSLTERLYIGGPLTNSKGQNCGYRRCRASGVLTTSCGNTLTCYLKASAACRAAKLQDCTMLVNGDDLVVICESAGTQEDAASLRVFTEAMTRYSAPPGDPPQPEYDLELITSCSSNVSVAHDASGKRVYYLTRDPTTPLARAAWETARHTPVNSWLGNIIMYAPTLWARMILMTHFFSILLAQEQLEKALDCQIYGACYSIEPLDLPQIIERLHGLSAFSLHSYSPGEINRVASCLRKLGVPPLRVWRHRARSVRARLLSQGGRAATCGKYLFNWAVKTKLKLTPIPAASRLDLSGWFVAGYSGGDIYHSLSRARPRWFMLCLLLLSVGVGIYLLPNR
SMILES,IC50 [µM],"inhibition at 50 µM (@ 50 uM compound, given where IC50 was impractical to calculate, read-out: percent inhibition) [%]"
"CCn1cc(CCC2(C3CCCC3)CC(=O)CC(=O)O2)ccc1=O (centres unmarked) [A(01), 6-Cyclopentyl-6-[2-(1-ethyl-6-oxo-1,6-dihydro-pyridin-3-yl)-ethyl]-dihydro-pyran-2,4-dione]",38.3,–
"CC(C)(C)c1cc(CCC2(C3CCCC3)CC(=O)CC(=O)O2)ccc1O (centres unmarked) [A(02), 6-[2-(3-tert-Butyl-4-hydroxy-phenyl)-ethyl]-6-cyclopentyl-dihydro-pyran-2,4-dione]",2.4,–
"CCOc1ccc(CCC2(C3CCCC3)CC(=O)CC(=O)O2)cc1C (centres unmarked) [A(03), 6-Cyclopentyl-6-[2-(4-ethoxy-3-methyl-phenyl)-ethyl]-dihydro-pyran-2,4-dione]",4.3,–
"Cc1cc(CCC2(C3CCCC3)CC(=O)CC(=O)O2)ccc1OC(C)C (centres unmarked) [A(04), 6-Cyclopentyl-6-[2-(4-isopropoxy-3-methyl-phenyl)-ethyl]-dihydro-pyran-2,4-dione]",5.6,–
"O=C1CC(=O)OC(CCc2ccc(OCC(F)(F)F)c(Cl)c2)(C2CCCC2)C1 (centres unmarked) [A(05), 6-{2-[3-Chloro-4-(2,2,2-trifluoro-ethoxy)-phenyl]-ethyl}-6-cyclopentyl-dihydro-pyran-2,4-dione]",5.1,–
"COc1ccc(SCC2(C3CCCC3)CC(=O)CC(=O)O2)cc1 (centres unmarked) [A(06), 6-Cyclopentyl-6-(4-methoxy-phenylsulfanylmethyl)-dihydro-pyran-2,4-dione]",23.5,–
"CC(=O)Nc1ccc(CCC2(C3CCCC3)CC(=O)CC(=O)O2)cc1F (centres unmarked) [A(07), N-{4-[2-(2-Cyclopentyl-4,6-dioxo-tetrahydro-pyran-2-yl)-ethyl]-2-fluoro-phenyl}-acetamide]",13.4,–
"COCc1ccc(CCC2(C3CCCC3)CC(=O)CC(=O)O2)cc1F (centres unmarked) [A(08), 6-Cyclopentyl-6-[2-(3-fluoro-4-methoxymethyl-phenyl)-ethyl]-dihydro-pyran-2,4-dione]",6,–
"O=C1CC(=O)OC(CCc2ccc(-c3ccccc3)c(F)c2)(C2CCCC2)C1 (centres unmarked) [A(09), 6-Cyclopentyl-6-[2-(2-fluoro-biphenyl-4-yl)-ethyl]-dihydro-pyran-2,4-dione]",5.5,–
"O=C1CC(=O)OC(CCc2ccc(-c3cc4ccccc4s3)c(F)c2)(C2CCCC2)C1 (centres unmarked) [A(10), 6-[2-(4-Benzo[b]thiophen-2-yl-3-fluoro-phenyl)-ethyl]-6-cyclopentyl-dihydro-pyran-2,4-dione]",8.1,–
"CNC(=O)c1ccc(CCC2(C3CCCC3)CC(=O)CC(=O)O2)cc1F (centres unmarked) [A(11), 4-[2-(2-Cyclopentyl-4,6-dioxo-tetrahydro-pyran-2-yl)-ethyl]-2-fluoro-N-methyl-benzamide]",16.7,–
"Cc1ccc(-c2ccc(CCC3(C4CCCC4)CC(=O)CC(=O)O3)cc2F)s1 (centres unmarked) [A(12), 6-Cyclopentyl-6-{2-[3-fluoro-4-(5-methyl-thiophen-2-yl)-phenyl]-ethyl}-dihydro-pyran-2,4-dione]",18.3,–
"O=C1CC(=O)OC(CCC2=CCCCC2)(C2CCCC2)C1 (centres unmarked) [A(13), 6-(2-Cyclohex-1-enyl-ethyl)-6-cyclopentyl-dihydro-pyran-2,4-dione]",63,–
"O=C1CC(=O)OC(CCN2CCCC2=O)(C2CCCC2)C1 (centres unmarked) [A(14), 6-Cyclopentyl-6-[2-(2-oxo-pyrrolidin-1-yl)-ethyl]-dihydro-pyran-2,4-dione]",–,35
"Cc1nc(-c2ccc(CCC3(C4CCCC4)CC(=O)CC(=O)O3)cc2F)no1 (centres unmarked) [A(15), 6-Cyclopentyl-6-{2-[3-fluoro-4-(5-methyl-[1,2,4]oxadiazol-3-yl)-phenyl]-ethyl}-dihydro-pyran-2,4-dione]",4.4,–
"CN(C)C(=O)c1ccc(CCC2(C3CCCC3)CC(=O)CC(=O)O2)cc1F (centres unmarked) [A(16), 4-[2-(2-Cyclopentyl-4,6-dioxo-tetrahydro-pyran-2-yl)-ethyl]-2-fluoro-N,N-dimethyl-benzamide]",14.4,–
"CCNC(=O)c1ccc(CCC2(C3CCCC3)CC(=O)CC(=O)O2)cc1F (centres unmarked) [A(17), 4-[2-(2-Cyclopentyl-4,6-dioxo-tetrahydro-pyran-2-yl)-ethyl]-N-ethyl-2-fluoro-benzamide]",23,–
